Measurements reported in US20250275950A1, “RIFAXIMIN AND N-ACETYL CYSTEINE FORMULATIONS” (Cedars-Sinai Medical Center, priority 2022, published 2025).
Converted amounts (≈) assume the structure as drawn.

System: E. Coli and Klebsiella
Experiment: In vitro dilution growth/cidal experiments
Type: cell-based
Procedure: In vitro dilution growth/cidal experiments were conducted on E. Coli and Klebsiella to determine doses of rifaximin and NAC, including lowest doses of rifaximin and lowest doses of NAC.

MIC (Escherichia coli, with NAC concentration of 0.125 mg/mL, E. Coli and Klebsiella, organism of the value not specified, read-out: minimal inhibitory concentration (MIC) for rifaximin)	Structure (SMILES)	effect of NAC on effectiveness of rifaximin in killing E. coli and Klebsiella
	CC(=O)N[C@@H](CS)C(=O)O [NAC, N-acetylcysteine]	improves the effectiveness of rifaximin
4 µg/mL (≈ 5.09 µM)	CO[C@H]1/C=C/O[C@@]2(C)Oc3c(C)c(O)c4c(O)c(c5c(nc6cc(C)ccn65)c4c3C2=O)NC(=O)/C(C)=C\C=C\[C@H](C)[C@H](O)[C@@H](C)[C@@H](O)[C@@H](C)[C@H](OC(C)=O)[C@@H]1C [rifaximin]	
